From patent publication US9216968B2, “Heterocyclic derivative and pharmaceutical drug” (NIPPON SHINYAKU CO., LTD., priority 2011, dated 2015)
Structures can show the parent of a compound that is named as a salt.

What was measured:
human mPGES-1 = human mPGES-1 (Homo sapiens (Human), UniProt O14684); assay: mPGES-1 inhibiting activity (microsome fractions, PGE2 by HTRF); assay type: biochemical; details: microsomes from CHO-K1 cells transfected with human mPGES-1; PGH2 1 μM, 4° C., 60 seconds; read-out: mPGES-1 Inhibition IC50
human mPGES-1, sequence (O14684 whole entry): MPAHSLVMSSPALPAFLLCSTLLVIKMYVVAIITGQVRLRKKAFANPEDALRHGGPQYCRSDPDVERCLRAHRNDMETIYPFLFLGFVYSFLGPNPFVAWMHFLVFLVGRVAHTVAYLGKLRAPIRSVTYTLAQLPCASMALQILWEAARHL
Outline: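 PGE2 formation read by HTRF after 60 s at 4 °C with 1 μM PGH2 substrate, following 20 min compound preincubation (1% DMSO) with human mPGES-1 microsomes from transfected CHO-K1 cells. Buffer: potassium phosphate, reduced glutathione, pH 7.4; IC50 from activity relative to enzyme-free blank.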

A549 cells = assay: Inhibition of PGE2 production in A549 cell (IL-1β stimulated); assay type: cell-based, human; details: Homo sapiens, A549, 24 h, IL-1β 5 ng/well, PGE2 in culture medium
Outline: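 A549 cells preincubated 60 min with compound in RPMI/3% FBS (final DMSO 0.10), then stimulated with IL-1β (5 ng/well) for 24 h at 37 °C. PGE2 measured by HTRF and PGF2α by EIA in medium; IC50 from inhibition relative to stimulated minus unstimulated production.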

Row | IC50 (human mPGES-1) [nM] | IC50 (A549 cells) [nM] | Compound
1 | 33.1 | 227 | Cc1c(Cl)cccc1NC(=O)c1cc(NC(=O)c2ccccc2C(F)(F)F)cc2[nH]c([C@@H]3CCCN3)nc12 [Example 71, N-(3-Chloro-2-methylphenyl)-2-[(2S)-pyrrolidin-2-yl]-6-({[2-(trifluoromethyl)phenyl]carbonyl}amino)-1H-benzimidazole-4-carboxamide dihydrochloride]
2 | 2.7 | 64.3 | CCOc1nc2c(C(=O)Nc3cccc(Cl)c3C)cc(NC(=O)c3ccccc3C(F)(F)F)cc2[nH]1 [Example 55, N-(3-Chloro-2-methylphenyl)-2-ethoxy-6-({[2-(trifluoromethyl)phenyl]carbonyl}amino)-1H-benzimidazole-4-carboxamide]
3 | 31.6 | 854 | Cc1c(Cl)cccc1NC(=O)c1cc(NC(=O)c2ccccc2C(F)(F)F)cc2[nH]c(NCCN3CCCC3)nc12 [Example 152, N-(3-Chloro-2-methylphenyl)-2-{[2-(pyrrolidin-1-yl)ethyl]amino}-6-({[2-(trifluoromethyl)phenyl]carbonyl}amino)-1H-benz imidazole-4-carboxamide hydrochloride]
4 | 15.8 | 186 | Cc1c(Cl)cccc1NC(=O)c1cc(NC(=O)c2ccccc2C(F)(F)F)cc2[nH]c(NCCN(C)C)nc12 [Example 147, N-(3-Chloro-2-methylphenyl)-2-{[2-(dimethylamino)ethyl]amino}-6-({[2-(trifluoromethyl)phenyl]carbonyl}amino)-1H-benzimidazole-4-carboxamide hydrochloride]
5 | 4.1 | 1100 | Cc1c(Cl)cccc1NC(=O)c1cc(NC(=O)c2ccccc2C(F)(F)F)cc2[nH]c(CC(N)=O)nc12 [Example 44, 2-(2-Amino-2-oxoethyl)-N-(3-chloro-2-methylphenyl)-6-({[2-(trifluoromethyl)phenyl]carbonyl}amino)-1H-benzimidazole-4-carboxamide hydrochloride]
6 | 3.9 | > 10000 | Cc1c(Cl)cccc1NC(=O)c1cc(NC(=O)c2ccccc2C(F)(F)F)cc2[nH]c([C@@H]3CCC(=O)N3)nc12 [Example 130, N-(3-Chloro-2-methylphenyl)-2-[(2S)-5-oxopyrrolidin-2-yl]-6-({[2-(trifluoromethyl)phenyl]carbonyl}amino)-1H-benzimidazole-4-carboxamide hydrochloride]

The remaining lines, values behind:

Row | Compound | IC50 (human mPGES-1) [nM] | IC50 (A549 cells) [nM]
7 | COCc1nc2c(C(=O)Nc3cccc(Cl)c3C)cc(NC(=O)c3c(F)cccc3Cl)cc2[nH]1 [Example 92, 6-{[(2-Chloro-6-fluorophenyl)carbonyl]amino}-N-(3-chloro-2-methylphenyl)-2-(methoxymethyl)-1H-benzimidazole-4-carboxamide hydrochloride] | 6.7 | 32.2
8 | Cc1nc2c(C(=O)NCc3ccccc3C(F)(F)F)cc(NC(=O)c3ccccc3C(F)(F)F)cc2[nH]1 [Example 12, 2-Methyl-N-[2-(trifluoromethyl)benzyl]-6-({[2-(trifluoromethyl)phenyl]carbonyl}amino)-1H-benzimidazole-4-carboxamide hydrochloride] | 7.1 | 41
9 | COCc1nc2c(C(=O)NCc3ccccc3C(F)(F)F)cc(NC(=O)c3ccccc3C(F)(F)F)cc2[nH]1 [Example 21, 2-(Methoxymethyl)-N-[2-(trifluoromethyl)benzyl]-6-({[2-(trifluoromethyl)phenyl]carbonyl}amino)-1H-benzimidazole-4-carboxamide] | 8.3 | 69.4
10 | COCc1nc2c(C(=O)Nc3cccc4cccnc34)cc(NC(=O)c3ccccc3C(F)(F)F)cc2[nH]1 [Example 230, 2-(Methoxymethyl)-N-(quinolin-8-yl)-6-({[2-(trifluoromethyl)phenyl]carbonyl}amino)-1H-benzimidazole-4-carboxamide hydrochloride] | 1.9 | 100
